Source: patent US20140121240A1, “NOVEL PHARMACEUTICAL COMPOSITION” (MARUHO CO., LTD., priority 2011, published 2014)
Marks after values point to notes of the source that are not given here.

Key:
[1] = system: PDE4; experiment: PDE4 inhibitory activity measured by a conventional manner; assay type: biochemical
Description: Ratio of inhibition rate on scratching behavior of each test compound to that of Compound A was calculated as antipruritic activity (%). For reference, PDE4 inhibitory activity of each compound (IC50) which was measured by a conventional manner is also shown in such Table.

[2] = system: spontaneous locomotor activity; experiment: Effect on spontaneous locomotor activity (Experiment 3 (2)); assay type: in vivo, mouse; details: for Spontaneous locomotor activity (Mean): measured from 1 h after administration
Description: (2) [Effect of Test Compound on Spontaneous Locomotor Activity] The same solution (50 μL) of test compound or a vehicle (50 μL) as described in the above-mentioned (1) was administered onto right dorsal neck of ICR female mice similarly pre-treated as described in Experiment 1. After one hour of the administration of the test compound solution or vehicle, these animals were placed into an apparatus for measuring spontaneous locomotor activity (SCANET, Melquest Ltd.), and their locomotor activity was measured for 30 minutes.

[3] = system: histamine-induced scratching behavior; experiment: Antipruritic activity in histamine-induced scratching model, dose response (Experiment 3 (1)); assay type: in vivo, mouse
Description: (1) [Antipruritic Activity of Test Compound in Histamine-Induced Scratching Model]
After topical administration of a solution (50 μL) of test compound (0.3 to 3% w/v solution of Compound A in acetone, or 0.03 to 0.3% w/v solution of cipamfylline in acetone), or a vehicle (acetone; 50 μL) onto right dorsal neck of ICR female mice similarly pre-treated as described in Experiment 1, these animals were placed into a testing apparatus (MicroAct). After one hour of the administration of said test compound solution or vehicle, a solution (50 μL) of histamine in saline (300 nmol/50 μL) or saline (50 μL; control group) was intradermally administered to right dorsal neck of each mouse. Immediately after the administration, scratching behavior (counts of scratching) was measured for 30 minutes by the testing apparatus (MicroAct).

[4] = system: pruritogen-induced scratching behavior; experiment: Antipruritic effect on pruritogen-induced scratching model (Experiment 1); assay type: in vivo, mouse; details: for Counts of scratching (Mean): 3% w/v in acetone 50 μL topical 1 h before, ICR female mouse
Text: [Antipruritic Effect of Test Compound on Pruritogen-Induced Scratching Model]
For the purpose of measuring scratching behavior (counts of scratching), a cylindrical magnet (diameter: 1 mm, length: 3 mm) was implanted into instep of right hindlimb of each mouse (ICR female mouse, 6 weeks old; Charles River Laboratories, Japan Inc.) under anesthesia at least three days before testing, and hair on her right dorsal neck was removed by a shaver under anesthesia the day before testing. After topical administration of a solution of test compound in acetone (3% w/v solution of 1-[2-(4S)-4-hydroxy-1,2,3,4-tetrahydroquinolin-1-yl]-4-pyridyl]-2,3-bis(dihydroxymethyl)-6,7-dimethoxynaphthalene sesquihydrate, as hereinafter referred to as Compound A, in acetone; 50 μL) or a vehicle (acetone; 50 μL) to the right dorsal neck of the above-treated mouse, these mice were placed into a testing apparatus (MicroAct, Neuroscience Inc.). After one hour of the administration of the above-mentioned solution, to the right dorsal neck of each mouse was intradermally administered a solution (50 μL) of a pruritogen in saline [histamine: 300 nmol/50 μL, U-46619 (chemical name: 9,11-dideoxy-9α,11α-methanoepoxyprosta-5Z,13E-dien-1-oic acid, Cayman Chemical Company): 10 nmol/50 μL, Compound 48/80 (Sigma): 3 μg/50 μL, serotonin (Sigma): 100 nmol/50 μL, or Substance P (Peptide Institute Inc.): 300 nmol/50 μL] or saline. Immediately after the administration, scratching behavior (counts of scratching) was measured for 30 minutes by MicroAct.

[5] = system: oxazolone-induced inflammatory reactions of right ear auricle; experiment: Chronic oxazolone-induced dermatitis model: ear auricle thickness (Experiment 4); assay type: in vivo, mouse; details: Compound A 1%, Tacrolimus 0.1%, Dexamethasone 0.01% w/v in 0.25% oxazolone
Description: (§1) [Antipruritic Effect of Test Compound in Chronic Oxazolone-Induced Dermatitis Model]
(§2) A magnet for measurement was implanted into an instep part of right hindlimb of BALB/c male mouse (fed for one week from five-week old; Charles River Laboratories, Japan Inc.) under anesthesia, and on the same day, sensitization was carried out by topically administering 0.5% w/v solution (10 μL) of oxazolone in acetone respectively onto the both sides of right ear auricle of the animal (sensitization day). On each point of the 7th, 9th, 11th, 14th and 16th day reckoned from the day after the sensitization (1st day), each mouse was challenged by topical administration of a 10 μL solution of test compound [acetone (vehicle-treated group), 0.25% w/v solution of oxazolone in acetone (oxazolone-treated group), or a test compound solubilized in 0.25% w/v oxazolone solution in acetone (test compound-treated group)] onto the both sides of right ear auricle of the animal to produce inflammatory reactions. Immediately after the administration, scratching behavior (counts of scratching) was measured for two hours by MicroAct. Thickness of right ear auricle of each mouse was measured by a thickness gauge before and 24 hours after the topical administration of each test compound solution. The percentage described in the Table means “% w/v”.

[6] = system: oxazolone-induced scratching behavior; experiment: Chronic oxazolone-induced dermatitis model: scratching behavior (Experiment 4); assay type: in vivo, mouse; details: for Counts of scratching (Mean ± standard error): Compound A 1%, Tacrolimus 0.1%, Dexamethasone 0.01% w/v in 0.25% oxazolone
Description: as §1, §2

For `COc1cc2cc(CO)c(CO)c(-c3ccnc(N4CC[C@H](O)c5ccccc54)c3)c2cc1OC` [Compound A, 1-[2-(4S)-4-hydroxy-1,2,3,4-tetrahydroquinolin-1-yl]-4-pyridyl]-2,3-bis(dihydroxymethyl)-6,7-dimethoxynaphthalene sesquihydrate], the IC50 [1] was 3 nM, the “Spontaneous locomotor activity (Mean)” value ([2]; 0.3% w/v in acetone 50 μL topical) was 5814 counts/30 min and the “Spontaneous locomotor activity (Mean)” value ([2]; 1% w/v in acetone 50 μL topical) was 5779 counts/30 min. The “Spontaneous locomotor activity (Mean)” value ([2]; 3% w/v in acetone 50 μL topical) was 6260 counts/30 min, the “spontaneous locomotor activity lowering effect at a dose producing antipruritic effect, result in words” value ([2]; Compound A 3% w/v, cipamfylline 0.3% w/v) was “did not show spontaneous locomotor activity lowering effect” and the “Counts of scratching (Mean)” value ([3]; 0.3% w/v in acetone 50 μL topical 1 h before histamine 300 nmol/50 μL) was 634 beats/30 min. For the same compound, the “Counts of scratching (Mean)” value ([3]; 1% w/v in acetone 50 μL topical 1 h before histamine 300 nmol/50 μL) was 611 beats/30 min, the “Counts of scratching (Mean)” value ([3]; 3% w/v in acetone 50 μL topical 1 h before histamine 300 nmol/50 μL) was 314 beats/30 min and the “pruritogen-induced scratching behavior (counts of scratching), result in words” value ([4]; 3% w/v topical, all pruritogens of Tables 1 to 5) was “significantly inhibited”. The “Counts of scratching (Mean)” value ([4]; pruritogen Compound 48/80 3 μg/50 μL intradermal, n = 15) was 521 beats/30 min, the “Counts of scratching (Mean)” value ([4]; pruritogen Substance P 300 nmol/50 μL intradermal, n = 15) was 777 beats/30 min and the “Counts of scratching (Mean)” value ([4]; pruritogen U-46619 10 nmol/50 μL intradermal, n = 15) was 1069 beats/30 min. The “Counts of scratching (Mean)” value ([4]; pruritogen histamine 300 nmol/50 μL intradermal, n = 11) was 365 beats/30 min, the “Counts of scratching (Mean)” value ([4]; pruritogen serotonin 100 nmol/50 μL intradermal, n = 10) was 841 beats/30 min and the “Ear auricle thickness (Mean)” value ([5]; 7th day) was 0.35 mm. For the same compound, the “Ear auricle thickness (Mean)” value ([5]; 8th day) was 0.44** mm, the “Ear auricle thickness (Mean)” value ([5]; 9th day) was 0.39** mm and the “Ear auricle thickness (Mean)” value ([5]; 10th day) was 0.46** mm. For the same compound, the “Ear auricle thickness (Mean)” value ([5]; 11th day) was 0.44** mm, the “Ear auricle thickness (Mean)” value ([5]; 12th day) was 0.48** mm and the “Ear auricle thickness (Mean)” value ([5]; 14th day) was 0.44** mm. For the same compound, the “Ear auricle thickness (Mean)” value ([5]; 15th day) was 0.54** mm, the “Ear auricle thickness (Mean)” value ([5]; 16th day) was 0.47** mm and the “Ear auricle thickness (Mean)” value ([5]; 17th day) was 0.50** mm. For the same compound, the Ear auricle thickness (Mean) ([5]; sensitization day, BALB/c male mouse) was 0.27 mm, the “Counts of scratching (Mean ± standard error)” value ([6]; 7th day, BALB/c male mouse) was 931 ± 135 (**) beats/2 hr and the “Counts of scratching (Mean ± standard error)” value ([6]; 9th day) was 664 ± 99 (**) beats/2 hr. The “Counts of scratching (Mean ± standard error)” value ([6]; 11th day) was 577 ± 77 (*) beats/2 hr, the “Counts of scratching (Mean ± standard error)” value ([6]; 14th day) was 863 ± 122 (**) beats/2 hr and the “inhibitory effect on the counts of scratching (antipruritic effect), result in words” value ([6]; 16th day) was “inhibitory effect on the counts of scratching”. The “Counts of scratching (Mean ± standard error)” value ([6]; 16th day) was 959 ± 166 (*) beats/2 hr.
